Measured values reported in patent publication US20050010368A1, “Method for the prediction of binding targets and the design of ligands” (priority 1997, published 2005).
Like-named read-outs stand apart in the source and are kept apart here.

Tests used:
HIV-1 protease = HIV-1 protease (Human immunodeficiency virus type 1 group M subtype B, UniProt P04585); assay: Structure-based thermodynamic calculation of inhibitor binding to HIV-1 protease
Description: In all cases presented here the Gibbs energy of binding, ΔG, was calculated from the published crystallographic structures using procedures previously described (D'Aquino et al., 1996; Gomez et al., 1995(a); Gomez et al., 1995(b); Hilser et al., 1996(b); Luque et al., 1996). These calculations require the structures of the complex as well as the structures of the unligated protein and unligated inhibitor. In this approach, the generic portion of the Gibbs energy, ΔGgen, is calculated from a separate computation of its enthalpy and entropy components. […]
The most significant structural/solvation contributions to the total free energy of binding are contained in the term […] which is calculated by estimating separately its enthalpy and entropy components. […]
The changes in accessible surface areas were calculated by implementing the Lee and Richards algorithm (Lee et al., 1971). […]
In binding or folding, the bulk of the enthalpy change originates from the formation of internal interactions (van der Waals, hydrogen bonds, etc.) and the parallel desolvation of the interacting groups. […] For example, it has been shown that for binding processes in which protons are either released or absorbed the measured enthalpy depends on the ionization enthalpy of the buffer (Gomez et al., 1995(b)). […]

endothiapepsin [1] = target: T1, endothiapepsin (Cryphonectria parasitica, UniProt P11838); type: biochemical
Text: The ΔΔG values are relative to the wild type. […] To test the structure-based thermodynamic prediction, the A5F mutant of pepstatin A was synthesized and the overall inhibition constant determined experimentally.

endothiapepsin [2] = target: T1, endothiapepsin
Text: The second mutation considered in this study involved the addition of an amino acid at the carboxy terminus of the peptide.

endothiapepsin [3] = target: T1, endothiapepsin; conditions: reference cited, cited from earlier work
endothiapepsin [4] = target: T1, endothiapepsin; conditions: relative to wild type pepstatin A
Description: In all cases, the coordinate sets for the complexes between the protein and the mutated peptides are generated by using the coordinates of the wild type complex as a template. Replacement mutants are created by replacing the original side chain with the desired mutation, leaving the backbone in the original conformation. For mutations that involve the addition of an extra amino acid at either end of the peptide chain, the backbone torsional angles are also included in the minimization.
The inhibitor contains two residues of the unusual amino acid statine (Sta: 4(S)-amino-3(S)-hydroxy-6methylheptanoic acid). […] Two different mutations of pepstatin A were studied. […] Twelve possible mutations at this position were considered (Cys, Gly, His, Ile, Leu, Met, Phe, Ser, Thr, Trp, Tyr, Val). For each of these mutations, the most probable conformation was identified. In the second case, the addition of an amino acid at the carboxy terminus of pepstatin A was considered. In this case, a simultaneous optimization of side chain and backbone conformations was performed in order to identify the most probable conformation.

[5] = target: T2, V82A mutant HIV-1 protease (Human immunodeficiency virus type 1 group M subtype B, UniProt P04585, V570A); conditions: V82A mutant vs wild type; Baldwin et al., 1995; cited from earlier work
T2 construct: the complex of A77003 with the V82A mutant HIV-1 protease

T1 sequence (P11838 90-419): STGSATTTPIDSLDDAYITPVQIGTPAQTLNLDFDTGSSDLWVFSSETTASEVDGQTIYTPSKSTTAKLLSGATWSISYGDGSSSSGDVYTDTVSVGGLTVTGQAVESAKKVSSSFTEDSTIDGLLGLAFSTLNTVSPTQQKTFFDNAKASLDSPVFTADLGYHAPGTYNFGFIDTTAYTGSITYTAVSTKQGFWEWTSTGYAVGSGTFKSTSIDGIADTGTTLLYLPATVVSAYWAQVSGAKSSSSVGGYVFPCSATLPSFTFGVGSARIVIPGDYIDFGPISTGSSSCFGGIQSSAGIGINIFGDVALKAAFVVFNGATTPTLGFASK

**Q.** For `CC(C)CN(C[C@@H](O)[C@H](Cc1ccccc1)NC(=O)O[C@H]1CCOC1)S(=O)(=O)c1ccc(N)cc1` [VX478], which ΔΔG (HIV-1 protease) is on record?
**A.** -563 cal/mol

**Q.** With Iva-Val-Val-Sta-Ala-Sta-Glu as the molecule, how does the “binding affinity relative to wild type pepstatin A” value (endothiapepsin [1]) read?
**A.** lower affinity

**Q.** And the “ΔG(25)exp” value (endothiapepsin [1])?
**A.** -11.3 kcal/mol

**Q.** What about the “enthalpy change (ΔH) of binding” value (endothiapepsin [2]; 16° C., calorimetric) of the same molecule?
**A.** -4.6 ± 0.1 kcal/mol

**Q.** What about the “heat capacity change (ΔCp)” value (endothiapepsin [2]; from temperature dependence of the binding enthalpy change) of the same molecule?
**A.** −260±20 cal/K•mol

**Q.** Which results are given for Iva-Val-Val-Sta-Ala-Sta [Pepstatin A]?
**A.** ΔG(25)exp (endothiapepsin [1]; experimental binding Gibbs energy at 25° C.): -12.7 kcal/mol; ΔH of binding (endothiapepsin [3]; measured under the same conditions (16° C.)): -4.1 kcal/mol; ΔCp of binding (endothiapepsin [3]; measured under the same conditions): −310 cal/K•mol

**Q.** With Iva-Val-Val-Sta-Phe-Sta as the molecule, how does the “Gibbs energy of binding more favorable than the wild type” value (endothiapepsin [4]) read?
**A.** about 1 kcal/mol

**Q.** And the “binding affinity relative to wild type pepstatin A” value (endothiapepsin [1])?
**A.** higher affinity

**Q.** What about the “deviation of ΔG from its predicted value” (endothiapepsin [1]) of the same molecule?
**A.** 0.2 kcal/mol

**Q.** And the “ΔG(25)exp” value (endothiapepsin [1])?
**A.** -13.3 kcal/mol

**Q.** For `CC(C)[C@H](NC(=O)N(C)Cc1ccccn1)C(=O)N[C@@H](Cc1ccccc1)[C@H](O)[C@H](O)[C@H](Cc1ccccc1)NC(=O)[C@@H](NC(=O)N(C)Cc1ccccn1)C(C)C` [A77003], which “reduction in binding affinity measured experimentally” value [5] is on record?
**A.** 4 fold
